Assay results as given in patent US7371534B2, “Sensitive intracellular calcium assay” (Discoverx Corporation, priority 2004, dated 2008).

Tested on: Muscarinic receptor
Assay: Intracellular calcium assay for the effect of carbachol (Fluo-4 AM, FLIPR peak fluorescence)
Type: cell-based
Conditions: for change in signal based on the value at 10 nM: 10 nM to 1000 nM
Method: Assay is run in a standard 384-well microtiter plate with a clear bottom. Cells are seeded at a density of 30,000 cells/well, and allowed to grow overnight in standard tissue culture medium, under standard tissue culture conditions.
The next day, tissue culture supernatant is removed, and 50 μl of Calcium Reagent (Molecular Devices, Sunnyvale Calif.) is added to the wells. Plate is incubated for 1 hour at 37EC in a standard tissue culture incubator. This step loads the dye into the cells.
After the 1 hour incubation, the plate is transferred to the Molecular Device FLIPR instrument, which measures the cellular fluorescence (excitation at 488 nm /emission 515 nm filter), in one second intervals. The dye is hydrolyzed in the cell by esterases and becomes fluorescent. The instrument adds 25 microliters of carbachol (agonist for cellular calcium response) 10 seconds after the initiation of the read, and the increase in free cellular calcium resulting from carbachol stimulation is measured as an increase in cellular fluorescent signal.
The reagent: 3 μM Fluo-4 AM dye (Molecular Probes, Eugene Oreg.), 150 nM antibody in HEPES buffer (pH 7.4) containing 1% fetal bovine serum (Sigma), 0.1% Pluronic F127 (BASF) and 0.5 mM probenecid (Sigma) is added.
Instrument software identifies peak fluorescence, which is directly correlated to cellular calcium levels.

C[N+](C)(C)CCOC(N)=O [Carbachol]
change in signal based on the value at 10 nM (commercial reagent): 21%
change in signal based on the value at 10 nM (present reagents): 161%
Calcium Assay, RFU (peak fluorescence) (carbachol 10 nM, Commercial Reagents (prior art, Quencher-Ab conjugate -)): 9410 RFU
Calcium Assay, RFU (peak fluorescence) (carbachol 10 nM, DiscoveRx Reagents (present reagents, Quencher-Ab conjugate +)): 2589 RFU
Calcium Assay, RFU (peak fluorescence) (carbachol 1000 nM, Commercial Reagents (prior art, Quencher-Ab conjugate -)): 11348 RFU
Calcium Assay, RFU (peak fluorescence) (carbachol 1000 nM, DiscoveRx Reagents (present reagents, Quencher-Ab conjugate +)): 6767 RFU
difference in signal in going from 10 nM to 1000 nM (commercial reagent): 1938 RFU
change in signal in going from 10 nM to 1000 nM (present reagents): 4178 RFU
